In US10513534B2, “2′-chloro nucleoside analogs for HCV infection” (priority 2012, dated 2019):
Where two headings read alike, the source gives them in different places.

Legend:
HCV genotype 1b replicon = test: HCV replicon assay (Zluc luciferase); type: cell-based; details: Zluc cells, 72 hours, read-out: HCV Replicon EC50
Procedure: Huh-7-derived cell line (Zluc) that harbors an HCV genotype 1b replicon and a luciferase reporter gene was grown in Dulbecco's Modified Eagle Medium (DMEM) supplemented with 10% fetal bovine serum, 2 mM GlutaMAX, 1% MEM nonessential amino acids, 100 IU/mL penicillin, 100 μg/mL streptomycin, and 0.5 mg/mL Geneticin® (G418). For dose response testing the cells were seeded in 96-well plates at 7.5×10^3 cells per well in a volume of 50 μL, and incubated at 37° C./5% CO2. Drug solutions were made up freshly in Huh-7 media as 2× stocks. Ten additional 5-fold dilutions were prepared from these stocks in DMEM without G418. At least three hours after Zluc cells were seeded, drug treatment was initiated by adding 50 μL of drug dilutions to the plates in duplicate. Final concentrations of drug ranged from 100 μM to […]. Cells were then incubated at 37° C./5% CO2. Alternatively, compounds were tested at two concentrations (1 μM and 10 μM). […] For this, media was removed from the plates via gentle tapping. Fifty microliters of ONE-glo luciferase assay reagent was added to each well. The plates were shaken gently for 3 min at room temperature and luminescence was measured on a Victor^3 V 1420 multilabel counter (Perkin Elmer) with a 1 second read time using a 700 nm cut-off filter. The EC50 values were calculated from dose response curves from the resulting best-fit equations determined by Microsoft Excel and XLfit 4.1 software. When screening at two fixed concentrations, the results were expressed as % inhibition at 1 μM and 10 μM.

in vitro = details: human
[1] = Liver triphosphate pharmacokinetics after single oral dose in CD-1 mice; type: in vivo; design: key: + ≤ 15; 15 < ++ ≤ 50; 50 < +++ ≤ 100; 100 < ++++; BLQ = below limit of quantitation; details: single oral dose 10 mg/kg in PEG 200;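 for Ms Liver TP AUC: pmol·h/g liver normalized to a 1 µmol/kg dose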;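 for Ms Liver TP Cmax: pmol/g liver normalized to a 1 µmol/kg dose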
Procedure: Internal standard solution was added to the homogenate followed by neutralization with 20% ammonium hydroxide solution and addition of 500 μL 1% formic acid. The tissue samples were extracted by weak anion exchange solid phase extraction (SPE). Post extraction, the eluates were evaporated under nitrogen, followed by reconstitution before injection onto the LC-MS/MS system.

Zluc cells = test: Cytotoxicity evaluation, CellTiter-Blue Cell Viability Assay; details: Zluc cells, CellTiter-Blue
[2] = Plasma nucleoside pharmacokinetics after single oral dose in CD-1 mice; type: in vivo; details: single oral dose 10 mg/kg in PEG 200;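 for Ms Plasma nucleoside AUC: pmol·h/mL plasma normalized to a 1 µmol/kg dose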
Procedure: Plasma samples were analyzed for nucleoside by LC-MS/MS. The internal standard (IS) was either 2′-MeG-D3 or tiapride. For protein precipitation and extraction, each plasma sample (50 μL) was treated with 500 μL of 0.2% formic acid in acetonitrile and 20 μL of the internal standard working solution. After vortexing and centrifugation, 500 μL of the sample extracts were transferred to a new plate, dried under N2 at ˜28° C. and reconstituted with 75 μL of 0.2% FA in water. The extracts were chromatographed on an Aquasil C18 column using a gradient system of 0.2% formic acid in water and acetonitrile. The analytes were detected and quantified by tandem mass spectrometry in positive ion mode on an MDS Sciex API5000 equipped with a Turbo Ionspray® interface. The calibration range was 0.500 (LLOQ) to 200 ng/mL in mouse plasma.

Row | SMILES | EC50 (HCV genotype 1b replicon; Hepatitis C virus, 72 h) [µM] | CC50 (in vitro) [µM] | Ms Liver TP AUC [1] | Ms Liver TP Cmax [1] | CC50 (Zluc cells) [µM] | Ms Plasma nucleoside AUC [2] | Ms Plasma nucleoside Cmax [2] | EC50 (HCV genotype 1b replicon) [µM]
1 | CCOC(=O)NCCC(C)(C)C(=O)SCCOP(=O)(NCc1ccccc1)OC[C@H]1O[C@@H](n2ccc(=O)[nH]c2=O)[C@](C)(Cl)[C@@H]1O (mixture of isomers) [Compound 51 Mixture of P-Diastereoisomers] | 0.25 to 1 | > 50 | – | – | – | – | – | –
2 | CCOc1nc(N)nc2c1ncn2[C@@H]1O[C@H](COP(=O)(N[C@@H](C)C(=O)OC(C)C)Oc2ccccc2)[C@@H](O)[C@@]1(C)Cl (single isomer, unassigned) [Compound 17ii Diastereomer 1] | 1 to 10 | > 50 | BLQ | BLQ | – | – | – | –
3 | CC(C)OC(=O)[C@H](C)NP(=O)(OC[C@H]1O[C@@H](n2cnc3c(=O)[nH]c(N)nc32)[C@](C)(Cl)[C@@H]1O)Oc1ccccc1 (single isomer, unassigned) [Compound 21ii Diastereomer 1] | > 10 | > 50 | – | – | – | – | – | –
4 | C[C@H](NP(=O)(OC[C@H]1O[C@@H](n2ccc(=O)[nH]c2=O)[C@](C)(Cl)[C@@H]1O)Oc1ccccc1)C(=O)OCC(C)(C)C (single isomer, unassigned) [Compound 42ii Single Diastereoisomer] | < 0.25 | > 50 | – | – | – | – | – | –
5 | CC(C)OC(=O)C(C)NP(=O)(OCCSC(=O)C(C)(C)C)OC[C@H]1O[C@@H](n2ccc(=O)[nH]c2=O)[C@](C)(Cl)[C@@H]1O (single isomer, unassigned) [Compound 43ii Diastereomer 2] | 0.25 to 1 | > 50 | – | – | – | – | – | –
6 | CC(C)(CO)C(=O)SCCOP1(=O)OC[C@H]2O[C@@H](n3ccc(=O)[nH]c3=O)[C@](C)(Cl)[C@@H]2O1 (single isomer, unassigned) [Compound 46 Single Diastereoisomer] | < 0.25 | > 50 | – | – | – | – | – | –
7 | CC(C)OC(=O)[C@H](C)NP(=O)(OC[C@H]1O[C@@H](n2ccc(N)nc2=O)[C@](C)(Cl)[C@@H]1O)Oc1ccccc1 (single isomer, unassigned) [Compound 56ii Diastereomer 1] | > 10 | > 50 | – | – | – | – | – | –
8 | CC(C)(C)C(=O)SCCOP1(=O)OC[C@H]2O[C@@H](n3ccc(N)nc3=O)[C@](C)(Cl)[C@@H]2O1 (single isomer, unassigned) [Compound 61 Diastereomer 2] | – | – | +++ (500 < +++ ≤ 1500) | ++++ (100 < ++++) | > 50 | + (+ ≤ 150) | + (+ ≤ 15) | < 0.25
9 | CCCCOC(=O)[C@@H](C)NP(=O)(OC[C@H]1O[C@@H](n2ccc(=O)[nH]c2=O)[C@](C)(Cl)[C@@H]1O)Oc1ccccc1 (single isomer, unassigned) [Compound 202i Diastereomer 2] | – | – | ++++ (1500 < ++++) | ++++ (100 < ++++) | > 50 | ++++ (1500 < ++++) | ++++ (100 < ++++) | 0.25 to 1
10 | C[C@@H](NP(=O)(OC[C@H]1O[C@@H](n2ccc(=O)[nH]c2=O)[C@](C)(Cl)[C@@H]1O)Oc1ccccc1)C(=O)OCc1ccccc1 (single isomer, unassigned) [Compound 205i Diastereomer 2] | – | – | ++++ (1500 < ++++) | ++++ (100 < ++++) | > 50 | ++++ (1500 < ++++) | +++ (50 < +++ ≤ 100) | 0.25 to 1
11 | CC(C)OC(=O)[C@H](C)NP(=O)(OC[C@H]1O[C@@H](n2cc(F)c3c(N)ncnc32)[C@](C)(Cl)[C@@H]1O)Oc1ccccc1 (single isomer, unassigned) [Compound 207ii Diastereomer 1] | > 10 | > 50 | – | – | – | – | – | –
12 | CC(C)OC(=O)[C@H](C)NP(=O)(OC[C@H]1O[C@@H](n2ccc3c(N)ncnc32)[C@](C)(Cl)[C@@H]1O)Oc1ccccc1 (single isomer, unassigned) [Compound 208ii Diastereomer 1] | > 10 | > 50 | BLQ | BLQ | – | – | – | –
13 | CC(C)OC(=O)[C@H](C)NP(=O)(OC[C@H]1O[C@@H](n2ccc3c(N)ncnc32)[C@](C)(Cl)[C@@H]1O)Oc1ccccc1 (single isomer, unassigned) [Compound 208ii Diastereomer 2] | – | – | BLQ | BLQ | > 50 | – | – | > 10
14 | CCCCOC(=O)[C@H](C)NP(=O)(OC[C@H]1O[C@@H](n2ccc(=O)[nH]c2=O)[C@](C)(Cl)[C@@H]1O)Oc1ccccc1 (single isomer, unassigned; diastereomer 1) [Compound 202ii Diastereomer 1] | – | – | +++ (500 < +++ ≤ 1500) | ++++ (100 < ++++) | > 50 | ++++ (1500 < ++++) | ++++ (100 < ++++) | < 0.25
15 | CCOC(=O)[C@H](C)NP(=O)(OC[C@H]1O[C@@H](n2ccc(=O)[nH]c2=O)[C@](C)(Cl)[C@@H]1O)Oc1ccccc1 (single isomer, unassigned; diastereomer 1) [Compound 203ii Diastereomer 1] | – | – | +++ (500 < +++ ≤ 1500) | +++ (50 < +++ ≤ 100) | > 50 | +++ (500 < +++ ≤ 1500) | +++ (50 < +++ ≤ 100) | 0.25 to 1
16 | CCOC(=O)[C@H](CC(C)C)NP(=O)(OC[C@H]1O[C@@H](n2ccc(=O)[nH]c2=O)[C@](C)(Cl)[C@@H]1O)Oc1ccccc1 (single isomer, unassigned; diastereomer 1) [Compound 204ii Diastereomer 1] | – | – | ++ (150 < ++ ≤ 500) | ++ (15 < ++ ≤ 50) | > 50 | +++ (500 < +++ ≤ 1500) | +++ (50 < +++ ≤ 100) | 1 to 10
17 | CCCCOC(=O)[C@H](C)NP(=O)(OC[C@H]1O[C@@H](n2ccc(=O)[nH]c2=O)[C@](C)(Cl)[C@@H]1O)Oc1ccccc1 (single isomer, unassigned; diastereomer 2) [Compound 202ii Diastereomer 2] | – | – | +++ (500 < +++ ≤ 1500) | +++ (50 < +++ ≤ 100) | > 50 | ++++ (1500 < ++++) | ++++ (100 < ++++) | < 0.25
18 | CCOC(=O)[C@H](C)NP(=O)(OC[C@H]1O[C@@H](n2ccc(=O)[nH]c2=O)[C@](C)(Cl)[C@@H]1O)Oc1ccccc1 (single isomer, unassigned; diastereomer 2) [Compound 203ii Diastereomer 2] | – | – | ++ (150 < ++ ≤ 500) | ++ (15 < ++ ≤ 50) | > 50 | +++ (500 < +++ ≤ 1500) | +++ (50 < +++ ≤ 100) | 0.25 to 1
19 | CCOC(=O)[C@H](CC(C)C)NP(=O)(OC[C@H]1O[C@@H](n2ccc(=O)[nH]c2=O)[C@](C)(Cl)[C@@H]1O)Oc1ccccc1 (single isomer, unassigned; diastereomer 2) [Compound 204ii Diastereomer 2] | – | – | ++ (150 < ++ ≤ 500) | ++ (15 < ++ ≤ 50) | > 50 | ++++ (1500 < ++++) | ++++ (100 < ++++) | 0.25 to 1
20 | C[C@@]1(Cl)[C@H](O)[C@@H](CO)O[C@H]1n1cnc2c(N)ncnc21 [Compound 302, 2′-C-Chloro-2′-C-methyladenosine] | > 10 | > 50 | – | – | – | – | – | –
21 | C[C@@]1(Cl)[C@H](O)[C@@H](CO)O[C@H]1n1cc(F)c2c(N)ncnc21 [Compound 303] | > 10 | > 50 | – | – | – | – | – | –
22 | CCOc1nc(N)nc2c1ncn2[C@@H]1O[C@H](CO)[C@@H](O)[C@@]1(C)Cl [Compound 304] | > 10 | > 50 | – | – | – | – | – | –
23 | C[C@@]1(Cl)[C@H](O)[C@@H](CO)O[C@H]1c1ccc2c(N)ncnn12 [Compound 305] | > 10 | > 50 | – | – | – | – | – | –
24 | C[C@@]1(Cl)[C@H](O)[C@@H](CO)O[C@H]1n1ccc(N)nc1=O [Compound 306] | > 10 | > 50 | – | – | – | – | – | –
